Like-named read-outs stand apart in the source and are kept apart here.
Key:
Assay type in all cases: biochemical
PIM2 = molecular target: T1, PIM2 (Homo sapiens, UniProt Q9P1W9); assay: ProfilerPro Kinase Selectivity, PIM2; settings: tested at 10 uM, read-out: percent inhibition of the kinase activity
T1 construct: purchased Caliper LifeSciences
Protocol: (§1) Kinome selectivity profiling was performed using two example compounds according to the manufacturer's instructions using Caliper LifeSciences' ProfilerPro Kinase Selectivity Assay Kits. Compounds prepared in Examples 1 and 7 were tested at 10 uM and data were recorded using the Caliper LabChip® EZ Reader™. Each compounds' percent inhibition of the kinase activity measured in this manner is reported in the following lists.

PRKCA = molecular target: T2, PRKCA (Homo sapiens, UniProt P17252); assay: ProfilerPro Kinase Selectivity, PRKCA; settings: tested at 10 uM, read-out: percent inhibition of the kinase activity
T2 construct: purchased Caliper LifeSciences
Protocol: as §1

HER4 = molecular target: T3, HER4 (Homo sapiens, UniProt Q15303); assay: ProfilerPro Kinase Selectivity, HER4; settings: tested at 10 uM, read-out: percent inhibition of the kinase activity
T3 construct: purchased Caliper LifeSciences
Protocol: as §1

PKG1B = molecular target: T4, PKG1B (Homo sapiens, UniProt Q13976); assay: ProfilerPro Kinase Selectivity, PKG1B; settings: tested at 10 uM, read-out: percent inhibition of the kinase activity
T4 construct: purchased Caliper LifeSciences
Protocol: as §1

LRRK2 = LRRK2 (Homo sapiens, UniProt Q5S007); assay: ProfilerPro Kinase Selectivity, LRRK2; settings: read-out: percent inhibition of the kinase activity
Protocol: as §1, with “Reader™.” for “Reader™. Each compounds' percent inhibition of the kinase activity measured in this manner is reported in the following lists.”

BTK = molecular target: T5, BTK (Homo sapiens, UniProt Q06187); assay: ProfilerPro Kinase Selectivity, BTK; settings: tested at 10 uM, read-out: percent inhibition of the kinase activity
T5 construct: purchased Caliper LifeSciences
Protocol: as §1

GSK3B = molecular target: T6, GSK3B (Homo sapiens, UniProt P49841); assay: ProfilerPro Kinase Selectivity, GSK3B; settings: tested at 10 uM, read-out: percent inhibition of the kinase activity
T6 construct: purchased Caliper LifeSciences
Protocol: as §1

IKKB = molecular target: T7, IKKB (Homo sapiens, UniProt O14920); assay: ProfilerPro Kinase Selectivity, IKKB; settings: tested at 10 uM, read-out: percent inhibition of the kinase activity
T7 construct: purchased Caliper LifeSciences
Protocol: as §1

CSNK1A1 = molecular target: T8, CSNK1A1 (Homo sapiens, UniProt P48729); assay: ProfilerPro Kinase Selectivity, CSNK1A1; settings: tested at 10 uM, read-out: percent inhibition of the kinase activity
T8 construct: purchased Caliper LifeSciences
Protocol: as §1

PHKG2 = molecular target: T9, PHKG2 (Homo sapiens, UniProt P15735); assay: ProfilerPro Kinase Selectivity, PHKG2; settings: tested at 10 uM, read-out: percent inhibition of the kinase activity
T9 construct: purchased Caliper LifeSciences
Protocol: as §1

PDGFRA D842V = molecular target: T10, PDGFRA D842V (Homo sapiens, UniProt P16234, D842V); assay: ProfilerPro Kinase Selectivity, PDGFRA D842V; settings: tested at 10 uM, read-out: percent inhibition of the kinase activity
T10 construct: purchased Caliper LifeSciences
Protocol: as §1

MNK1 = molecular target: T11, MNK1 (Homo sapiens, UniProt Q9BUB5); assay: ProfilerPro Kinase Selectivity, MNK1; settings: tested at 10 uM, read-out: percent inhibition of the kinase activity
T11 construct: purchased Caliper LifeSciences
Protocol: as §1

AKT2 = molecular target: T12, AKT2 (Homo sapiens, UniProt P31751); assay: ProfilerPro Kinase Selectivity, AKT2; settings: tested at 10 uM, read-out: percent inhibition of the kinase activity
T12 construct: purchased Caliper LifeSciences
Protocol: as §1

ABL T315I = molecular target: T13, ABL T315I (Homo sapiens, UniProt P00519, T315I); assay: ProfilerPro Kinase Selectivity, ABL T315I; settings: tested at 10 uM, read-out: percent inhibition of the kinase activity
T13 construct: purchased Caliper LifeSciences
Protocol: as §1

SRC = molecular target: T14, SRC (Homo sapiens, UniProt P12931); assay: ProfilerPro Kinase Selectivity, SRC; settings: tested at 10 uM, read-out: percent inhibition of the kinase activity
T14 construct: purchased Caliper LifeSciences
Protocol: as §1

RET V804L = molecular target: T15, RET V804L (Homo sapiens, UniProt P07949, V804L); assay: ProfilerPro Kinase Selectivity, RET V804L; settings: tested at 10 uM, read-out: percent inhibition of the kinase activity
T15 construct: purchased Caliper LifeSciences
Protocol: as §1

MET M1250T = molecular target: T16, MET M1250T (Homo sapiens, UniProt P08581, M1250T); assay: ProfilerPro Kinase Selectivity, MET M1250T; settings: tested at 10 uM, read-out: percent inhibition of the kinase activity
T16 construct: purchased Caliper LifeSciences
Protocol: as §1

SRM = molecular target: T17, SRM (Homo sapiens, UniProt Q9H3Y6); assay: ProfilerPro Kinase Selectivity, SRM; settings: tested at 10 uM, read-out: percent inhibition of the kinase activity
T17 construct: purchased Caliper LifeSciences
Protocol: as §1

C-TAK1 = molecular target: T18, C-TAK1 (Homo sapiens, UniProt P27448); assay: ProfilerPro Kinase Selectivity, C-TAK1; settings: tested at 10 uM, read-out: percent inhibition of the kinase activity
T18 construct: purchased Caliper LifeSciences
Protocol: as §1

FMS = molecular target: T19, FMS (Homo sapiens, UniProt P07333); assay: ProfilerPro Kinase Selectivity, FMS; settings: tested at 10 uM, read-out: percent inhibition of the kinase activity
T19 construct: purchased Caliper LifeSciences
Protocol: as §1

PASK = molecular target: T20, PASK (Homo sapiens, UniProt Q96RG2); assay: ProfilerPro Kinase Selectivity, PASK; settings: tested at 10 uM, read-out: percent inhibition of the kinase activity
T20 construct: purchased Caliper LifeSciences
Protocol: as §1

CK1G3 = molecular target: T21, CK1G3 (Homo sapiens, UniProt Q9Y6M4); assay: ProfilerPro Kinase Selectivity, CK1G3; settings: tested at 10 uM, read-out: percent inhibition of the kinase activity
T21 construct: purchased Caliper LifeSciences
Protocol: as §1

TXK = molecular target: T22, TXK (Homo sapiens, UniProt P42681); assay: ProfilerPro Kinase Selectivity, TXK; settings: tested at 10 uM, read-out: percent inhibition of the kinase activity
T22 construct: purchased Caliper LifeSciences
Protocol: as §1

JAK2 = molecular target: T23, JAK2 (Homo sapiens, UniProt O60674); assay: ProfilerPro Kinase Selectivity, JAK2; settings: tested at 10 uM, read-out: percent inhibition of the kinase activity
T23 construct: purchased Caliper LifeSciences
Protocol: as §1

MST1 = molecular target: T24, MST1 (Homo sapiens, UniProt Q13043); assay: ProfilerPro Kinase Selectivity, MST1; settings: tested at 10 uM, read-out: percent inhibition of the kinase activity
T24 construct: purchased Caliper LifeSciences
Protocol: as §1

FGFR3 K650E = molecular target: T25, FGFR3 K650E (Homo sapiens, UniProt P22607, K650E); assay: ProfilerPro Kinase Selectivity, FGFR3 K650E; settings: tested at 10 uM, read-out: percent inhibition of the kinase activity
T25 construct: purchased Caliper LifeSciences
Protocol: as §1

YES = molecular target: T26, YES (Homo sapiens, UniProt P07947); assay: ProfilerPro Kinase Selectivity, YES; settings: tested at 10 uM, read-out: percent inhibition of the kinase activity
T26 construct: purchased Caliper LifeSciences
Protocol: as §1

ROCK1 = molecular target: T27, ROCK1 (Homo sapiens, UniProt Q13464); assay: ProfilerPro Kinase Selectivity, ROCK1; settings: tested at 10 uM, read-out: percent inhibition of the kinase activity
T27 construct: purchased Caliper LifeSciences
Protocol: as §1

T6 sequence (P49841 whole entry, species assumed): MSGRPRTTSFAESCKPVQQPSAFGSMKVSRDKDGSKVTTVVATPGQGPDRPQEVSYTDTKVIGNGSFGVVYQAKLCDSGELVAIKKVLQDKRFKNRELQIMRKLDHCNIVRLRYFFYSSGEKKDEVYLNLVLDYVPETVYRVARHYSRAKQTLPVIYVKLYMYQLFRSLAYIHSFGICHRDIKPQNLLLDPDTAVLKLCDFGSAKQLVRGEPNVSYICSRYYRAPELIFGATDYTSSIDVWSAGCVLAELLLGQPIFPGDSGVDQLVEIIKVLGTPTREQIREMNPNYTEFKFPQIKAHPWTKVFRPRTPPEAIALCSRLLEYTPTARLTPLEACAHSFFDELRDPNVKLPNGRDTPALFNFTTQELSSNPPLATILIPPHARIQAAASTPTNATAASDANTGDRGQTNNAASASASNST
T3 sequence (Q15303 26-1308, species assumed): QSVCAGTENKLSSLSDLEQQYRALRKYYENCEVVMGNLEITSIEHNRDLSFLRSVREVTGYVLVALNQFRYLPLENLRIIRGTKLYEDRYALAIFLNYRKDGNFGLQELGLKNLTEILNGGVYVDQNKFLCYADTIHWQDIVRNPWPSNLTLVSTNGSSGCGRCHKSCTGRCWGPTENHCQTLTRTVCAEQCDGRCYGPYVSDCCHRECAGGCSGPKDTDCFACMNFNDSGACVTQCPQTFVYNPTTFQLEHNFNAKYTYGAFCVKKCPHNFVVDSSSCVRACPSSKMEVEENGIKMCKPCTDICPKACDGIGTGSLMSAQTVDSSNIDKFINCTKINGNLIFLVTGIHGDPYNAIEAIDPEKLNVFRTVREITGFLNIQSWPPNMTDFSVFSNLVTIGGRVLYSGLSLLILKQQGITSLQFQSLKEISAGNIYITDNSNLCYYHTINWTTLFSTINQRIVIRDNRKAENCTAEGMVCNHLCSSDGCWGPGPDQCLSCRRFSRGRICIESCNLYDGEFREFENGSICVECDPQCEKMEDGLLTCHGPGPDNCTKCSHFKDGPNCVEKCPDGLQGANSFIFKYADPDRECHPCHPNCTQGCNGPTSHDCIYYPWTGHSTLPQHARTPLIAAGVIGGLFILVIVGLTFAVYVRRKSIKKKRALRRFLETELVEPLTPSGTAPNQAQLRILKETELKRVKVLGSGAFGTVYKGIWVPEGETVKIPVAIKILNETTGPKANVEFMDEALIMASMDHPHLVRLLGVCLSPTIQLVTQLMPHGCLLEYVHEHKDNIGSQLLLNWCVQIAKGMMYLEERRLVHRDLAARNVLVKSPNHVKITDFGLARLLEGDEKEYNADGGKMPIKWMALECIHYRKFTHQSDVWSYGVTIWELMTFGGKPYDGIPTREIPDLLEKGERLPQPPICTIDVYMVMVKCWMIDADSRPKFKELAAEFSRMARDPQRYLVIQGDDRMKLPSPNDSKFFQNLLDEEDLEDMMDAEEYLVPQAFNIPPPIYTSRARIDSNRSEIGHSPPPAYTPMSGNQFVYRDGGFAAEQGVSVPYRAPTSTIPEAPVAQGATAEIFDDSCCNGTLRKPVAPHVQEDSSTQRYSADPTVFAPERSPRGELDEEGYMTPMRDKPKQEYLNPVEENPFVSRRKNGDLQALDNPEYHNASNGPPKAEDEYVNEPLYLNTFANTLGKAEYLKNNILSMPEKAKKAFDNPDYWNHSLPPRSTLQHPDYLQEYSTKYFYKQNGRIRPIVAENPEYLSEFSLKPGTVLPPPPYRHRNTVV
T26 sequence (P07947 whole entry, species assumed): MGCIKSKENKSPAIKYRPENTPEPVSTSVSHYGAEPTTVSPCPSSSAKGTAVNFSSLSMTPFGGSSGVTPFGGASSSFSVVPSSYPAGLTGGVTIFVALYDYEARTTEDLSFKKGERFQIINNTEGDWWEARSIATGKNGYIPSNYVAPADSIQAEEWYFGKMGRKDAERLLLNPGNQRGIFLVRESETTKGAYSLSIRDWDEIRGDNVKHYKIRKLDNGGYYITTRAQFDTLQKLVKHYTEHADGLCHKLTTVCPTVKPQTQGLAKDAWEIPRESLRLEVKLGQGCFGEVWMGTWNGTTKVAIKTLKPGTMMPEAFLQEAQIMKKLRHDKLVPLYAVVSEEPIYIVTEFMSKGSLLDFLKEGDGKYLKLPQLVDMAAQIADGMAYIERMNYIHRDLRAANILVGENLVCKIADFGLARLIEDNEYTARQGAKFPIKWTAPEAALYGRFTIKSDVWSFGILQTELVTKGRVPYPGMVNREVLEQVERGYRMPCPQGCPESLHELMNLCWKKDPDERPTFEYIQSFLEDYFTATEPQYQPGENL
T1 sequence (Q9P1W9 whole entry, species assumed): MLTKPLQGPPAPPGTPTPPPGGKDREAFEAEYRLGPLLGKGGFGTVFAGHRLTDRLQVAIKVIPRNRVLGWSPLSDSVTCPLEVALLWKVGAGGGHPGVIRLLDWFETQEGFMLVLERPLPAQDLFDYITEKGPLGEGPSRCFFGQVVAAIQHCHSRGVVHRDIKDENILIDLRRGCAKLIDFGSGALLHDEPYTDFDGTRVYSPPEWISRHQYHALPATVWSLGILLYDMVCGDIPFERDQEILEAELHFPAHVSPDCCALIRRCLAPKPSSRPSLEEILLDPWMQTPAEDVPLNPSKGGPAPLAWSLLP
T5 sequence (Q06187 whole entry, species assumed): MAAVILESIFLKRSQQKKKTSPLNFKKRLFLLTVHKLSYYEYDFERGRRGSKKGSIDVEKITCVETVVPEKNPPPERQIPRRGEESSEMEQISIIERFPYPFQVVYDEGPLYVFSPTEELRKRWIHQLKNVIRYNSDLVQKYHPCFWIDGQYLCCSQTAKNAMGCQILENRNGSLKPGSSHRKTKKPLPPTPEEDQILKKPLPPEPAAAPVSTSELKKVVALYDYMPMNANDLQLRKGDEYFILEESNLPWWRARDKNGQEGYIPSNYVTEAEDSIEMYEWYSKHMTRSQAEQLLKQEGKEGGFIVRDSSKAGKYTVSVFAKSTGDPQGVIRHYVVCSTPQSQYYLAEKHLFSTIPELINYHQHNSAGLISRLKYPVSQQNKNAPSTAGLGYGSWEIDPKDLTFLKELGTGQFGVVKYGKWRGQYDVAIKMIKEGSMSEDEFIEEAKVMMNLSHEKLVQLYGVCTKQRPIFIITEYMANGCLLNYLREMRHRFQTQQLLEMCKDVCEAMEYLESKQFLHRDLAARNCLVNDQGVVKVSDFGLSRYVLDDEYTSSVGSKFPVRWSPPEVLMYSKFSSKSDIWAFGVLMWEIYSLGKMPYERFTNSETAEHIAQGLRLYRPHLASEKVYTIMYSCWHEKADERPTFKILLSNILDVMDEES
T27 sequence (Q13464 whole entry, species assumed): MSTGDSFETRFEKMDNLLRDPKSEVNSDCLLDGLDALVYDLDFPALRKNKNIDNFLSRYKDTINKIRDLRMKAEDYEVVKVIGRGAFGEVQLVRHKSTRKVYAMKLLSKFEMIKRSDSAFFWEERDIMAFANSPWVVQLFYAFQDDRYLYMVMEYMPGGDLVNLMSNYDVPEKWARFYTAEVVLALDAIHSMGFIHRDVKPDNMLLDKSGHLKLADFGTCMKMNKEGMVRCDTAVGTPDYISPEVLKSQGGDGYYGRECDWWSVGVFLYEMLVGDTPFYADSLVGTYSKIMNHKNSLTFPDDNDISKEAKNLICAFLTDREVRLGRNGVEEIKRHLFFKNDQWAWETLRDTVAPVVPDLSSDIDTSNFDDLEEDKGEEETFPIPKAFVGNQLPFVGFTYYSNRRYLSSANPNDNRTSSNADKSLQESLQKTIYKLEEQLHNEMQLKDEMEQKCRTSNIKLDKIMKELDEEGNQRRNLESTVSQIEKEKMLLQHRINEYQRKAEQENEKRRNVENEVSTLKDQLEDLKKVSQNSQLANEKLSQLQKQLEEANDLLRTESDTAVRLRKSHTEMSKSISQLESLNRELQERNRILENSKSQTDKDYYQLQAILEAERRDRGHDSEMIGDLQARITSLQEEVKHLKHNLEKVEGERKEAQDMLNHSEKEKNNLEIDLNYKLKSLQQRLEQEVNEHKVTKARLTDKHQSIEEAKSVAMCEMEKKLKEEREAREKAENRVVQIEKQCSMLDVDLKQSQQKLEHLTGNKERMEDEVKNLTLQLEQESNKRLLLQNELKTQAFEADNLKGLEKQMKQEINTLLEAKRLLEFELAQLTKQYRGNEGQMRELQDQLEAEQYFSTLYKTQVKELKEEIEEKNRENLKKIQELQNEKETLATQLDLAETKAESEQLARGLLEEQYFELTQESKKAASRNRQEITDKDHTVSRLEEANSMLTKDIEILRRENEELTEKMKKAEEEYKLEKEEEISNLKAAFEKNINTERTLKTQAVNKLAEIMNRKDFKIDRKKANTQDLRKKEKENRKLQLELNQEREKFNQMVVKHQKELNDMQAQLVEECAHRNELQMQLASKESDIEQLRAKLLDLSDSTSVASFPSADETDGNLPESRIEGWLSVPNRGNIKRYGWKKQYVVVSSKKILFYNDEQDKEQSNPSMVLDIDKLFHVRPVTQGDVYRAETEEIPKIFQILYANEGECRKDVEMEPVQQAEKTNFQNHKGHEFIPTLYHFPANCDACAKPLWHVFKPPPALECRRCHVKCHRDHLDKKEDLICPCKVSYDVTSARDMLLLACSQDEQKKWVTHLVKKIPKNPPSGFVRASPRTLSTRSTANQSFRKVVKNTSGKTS
T17 sequence (Q9H3Y6 whole entry): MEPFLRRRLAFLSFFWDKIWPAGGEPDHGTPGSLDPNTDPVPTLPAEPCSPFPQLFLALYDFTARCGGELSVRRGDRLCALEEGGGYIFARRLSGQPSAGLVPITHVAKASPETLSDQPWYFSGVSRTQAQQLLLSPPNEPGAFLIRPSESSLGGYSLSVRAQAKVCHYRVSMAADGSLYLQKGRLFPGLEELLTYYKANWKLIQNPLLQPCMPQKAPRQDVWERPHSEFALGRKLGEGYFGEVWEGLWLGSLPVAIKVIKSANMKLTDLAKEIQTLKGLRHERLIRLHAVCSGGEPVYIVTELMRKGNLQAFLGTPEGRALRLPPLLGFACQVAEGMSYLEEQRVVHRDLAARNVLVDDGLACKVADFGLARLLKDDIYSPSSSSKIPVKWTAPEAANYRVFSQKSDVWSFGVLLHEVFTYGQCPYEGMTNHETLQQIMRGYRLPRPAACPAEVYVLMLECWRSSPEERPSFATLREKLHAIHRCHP

SMILES	inhibition at 10 µM (PIM2) [%]	inhibition at 10 µM (PRKCA) [%]	inhibition at 10 µM (HER4) [%]	inhibition at 10 µM (PKG1B) [%]	inhibition at 10 µM (BTK) [%]	inhibition at 10 µM (GSK3B) [%]	inhibition at 10 µM (IKKB) [%]	inhibition at 10 µM (CSNK1A1) [%]	inhibition at 10 µM (PHKG2) [%]	inhibition at 10 µM (PDGFRA D842V) [%]	inhibition at 10 µM (MNK1) [%]	inhibition at 10 µM (AKT2) [%]	inhibition at 10 µM (ABL T315I) [%]	inhibition at 10 µM (SRC) [%]	inhibition at 10 µM (RET V804L) [%]	inhibition at 10 µM (MET M1250T) [%]	inhibition at 10 µM (SRM) [%]	inhibition at 10 µM (C-TAK1) [%]	inhibition at 10 µM (FMS) [%]	inhibition at 10 µM (PASK) [%]	also measured
CSc1sc(-c2cc[nH]n2)c2c1C(=O)CCC2 [Example 1, 3-(Methylsulfanyl)-1-(1H-pyrazol-3-yl)-6,7-dihydro-2-benzothiophen-4(5H)-one]	1.6	2.6	-2.4	10.8	3.1	5.4	9.3	12.4	-5.5	33.9	1.7	-6.8	9.9	7.3	41.5	5.1	3.5	5.3	-36.1	2.6	inhibition at 10 µM (LRRK2): 93.9%; inhibition at 10 µM (CK1G3): 1.1%; inhibition at 10 µM (TXK): 22.7%; inhibition at 10 µM (JAK2): 19.4%; inhibition at 10 µM (MST1): 7.2%; inhibition at 10 µM (FGFR3 K650E): 3.7%; inhibition at 10 µM (YES): -4.4%; inhibition at 10 µM (ROCK1): -3.1%
CC1(C)CC(=O)c2c(SC3CCCC3)sc(-c3cc[nH]n3)c2C1 [Example 7, 3-(Cyclopentylsulfanyl)-6,6-dimethyl-1-(1H-pyrazol-3-yl)-6,7-dihydro-2-benzothiophen-4(5H)-one]	-1.6	4.3	-2.2	-0.6	4.8	0.5	0.5	2	-2	3.7	-5.6	-6.8	2.6	1.5	15.7	-0.3	3	4.7	-6.5	-10.8	inhibition at 10 µM (LRRK2; LRRK2, tested at 10 uM): 83.1%; inhibition at 10 µM (CK1G3): 7.7%; inhibition at 10 µM (TXK): 8.4%; inhibition at 10 µM (JAK2): 5.3%; inhibition at 10 µM (MST1): -3%; inhibition at 10 µM (FGFR3 K650E): -4.2%; inhibition at 10 µM (YES): -11.1%; inhibition at 10 µM (ROCK1): 5.1%
